The numbers were not newly measured in patent US7378114B2, “Method for producing soluble composition containing isoflavones” (Fuji Oil Company, Limited, priority 2001, dated 2008), which cites them from elsewhere.

The conditions of this data set: under 25° C.; according to the literature; per 100 g solvent.

Structures are written as SMILES.

Consider `O=c1c(-c2ccccc2)coc2ccccc12` [isoflavone], for which the solubility in water was 0.002 to 0.003 g.
